Measured values taken from patent US20050227994A1, “Decomposition inhibitor for extracellular matrix of cartilage” (Shionogi & Co., Ltd., priority 2002, published 2005).
Entries after “also recorded” stand apart in the source; their conditions may differ.

tested on: cartilage disks of juvenile rabbits, IL-1 stimulated GAG release; experiment: Cartilage culture test (IL-1 induced GAG release); format: cell-based, rabbit; conditions: stated in text for the compound of FIG. 1
Protocol: Cartilage disks (2 mm in diameter) were prepared from the cartilage of juvenile rabbits (3 weeks). Cartilage disks were transferred and cultured individually in the wells of a 48-well tissue culture plate containing DMEM/10% FCS for over 3 days at 37° C. In the night before the test, the medium of DMEM was changed to that not containing FCS. Next morning, IL-1 (4 ng/ml) and a test compound were added to the plate. It is provided that some wells of a plate contain only IL-1 (not containing test compound) and that some wells are vehicle (not containing IL-1 and test compound). After 4 days from the IL-1 addition, the amount of released glycosaminoglycan (GAG) was measured after collecting culture supernatant and cartilage disks.
Quantitation of GAG release was as follows; the weight of the cartilage disk was measured, then 200 μl of a papain digestion buffer solution (1 mM EDTA, 2 mM DTT, 20 mM Tris, (pH 7.0), Papain (300 μg/ml)) was added to each well and the plate containing the digestive solution was incubated for 2 h at 65° C. 50 μl of 100 mM Iodoacetatic acid (pH 7.0) was added for stopping the digestion. The extracts of cartilage are centrifuged at 12000 rpm for 5 min. […] The amount of released GAG in the transferred solution was quantitated by using a proteoglycan & glycosaminoglycan assay kit (Blyscan, Funakoshi Co., Ltd, Tokyo, Japan).

SMILES	GAG value
CC(C)C(NS(=O)(=O)c1ccc(Oc2ccccc2)cc1)C(=O)NO (stereo not shown) [XXI]	87

molecular target: T1, MMP-13 (Homo sapiens, UniProt P45452); experiment: Assay for inhibitory activities on MMP-13; format: biochemical; conditions: catalytic domain, substrate MOCAc-Pro-Leu-Gly-Leu-A2Pr(DNP)-Ala-Arg-NH2; read-out: MMP-13 (IC50μM)
T1 construct: catalytic domain (^104Tyr˜^267Gly) was amplified with RT-PCR; His-tag; enterokinase digestion-site; made in house
Protocol: In regard to MMP-13, mRNA was prepared from carcinoma cell SW1353 derived from human cartilage stimulate by IL-1, TNF and catalytic domain (^[…]) was amplified with RT-PCR. This was cloned in Escherichia. coli expression vector […] inserted with His-tag sequence and enterokinase digestion-site, induced and expressed by IPTG (Isopropyl-β-D-thiogalactopyranoside) and expressed in a insoluble fraction. Isolation of MMP-13 from an insoluble fraction was carried out by dissolving in modifier (6M urea) by a usual method and purification with metal chelate chromatography (Ni […] Sepharose). […] The enzymatic activity on MMP was analyzed by the method described in “C. Graham Knight, Frances Willenbrock and Gillian Murphy: A novel coumarin-labelled peptide for sensitive continuous assays of the matrix metalloproteinases: […] The substrate: MOCAc-[…] was purchased from Peptide Institute, Inc., Osaka, Japan.

SMILES	IC50
CCOc1ccc(-c2ccc(S(=O)(=O)NC(CC(C)C)C(=O)O)s2)cc1 (stereo not shown) [Compound F-5]	0.0183 µM
C[C@@H](NS(=O)(=O)c1ccc(-c2ccc(-c3ccc4ccccc4c3)cc2)cc1)C(=O)O [Compound E-28]	0.012 µM
CSCC[C@@H](NS(=O)(=O)c1ccc(-c2ccc(SC)cc2)cc1)C(=O)O [Compound E-7]	0.0197 µM
CSc1ccc(-c2cnc(-c3ccc(S(=O)(=O)N[C@@H](C(=O)O)C(C)C)cc3)s2)cc1 [Compound A-25]	0.00033 µM
O=C(O)[C@@H](Cc1ccccc1)NS(=O)(=O)c1ccc(-c2nnn(-c3ccc(Br)cc3)n2)cc1 [Compound I-1]	0.036 µM
Cc1ccc(-c2ccc(S(=O)(=O)N[C@@H](Cc3c[nH]c4ccccc34)C(=O)O)s2)cc1 [Compound F-19]	0.63 µM
CC(C)C[C@@H](NS(=O)(=O)c1ccc(-c2ncc(-c3ccc(Cl)c(Cl)c3)s2)cc1)C(=O)O [Compound A-24]	0.0482 µM
CCc1ccc(-c2nc(-c3ccc(S(=O)(=O)N[C@H](Cc4ccccc4)C(=O)O)s3)no2)cc1 [Compound N-8]	0.182 µM
CCc1ccc(-c2nc(-c3ccc(S(=O)(=O)N[C@@H](C(=O)O)C(C)C)cc3)no2)cc1 [Compound C-1]	0.01 µM
O=C(O)[C@H](NS(=O)(=O)c1ccc(-c2ccc(N3CCCC3)cc2)s1)c1ccc(O)cc1 [Compound F-17]	0.0037 µM
Cc1ccc(C#Cc2ccc(S(=O)(=O)N[C@H](Cc3c[nH]c4cccc(O)c34)C(=O)O)s2)cc1 [Compound H-5]	0.0328 µM

tested on: aggrecanase; experiment: Aggrecanase inhibitory activity test (western blot with anti ARGSV antibody); format: cell-based, rabbit; conditions: 4 days culture supernatant containing both IL-1 and test compound
Protocol: To 50 μl of the above 4 days cultured supernatant (not including IL-1 and a test compound, including IL-1 only, including both IL-1 and a test compound) was added a 5 volume solution of 95% EtOH containing 1.3% (w/v) potassium acetate. After the mixed solution was stood at −20° C. for 30 min, the solution was centrifuged to obtain a precipitation. The precipitation was solubilized in 100 μl of 25 mM Tris-hydrochloric acid buffer solution (pH7.6) containing 5 mM calcium chloride*0.15M sodium chloride*0.0025% Brij35. After addition of 5 μl of 250 mM ethylenediaminetetraacetic acid, and 2.5 μl each of 1M sodium acetate (pH6.0) and 1M Tris-hydrochloric acid (pH7.9) to the solution, 2.5 μl of 0.02 units/μl Chondroitinase ABC and 1.0 μl of 0.1 units/μl Keratanase (Both are Seikagaku Kogyo, Japan) were added and the mixture was incubated at 37° C. for 16 h to remove GAG. […]
In the culture supernatant containing only IL-1, the 250 kDa aggrecanase-generated fragment of aggrecan which was recognized by anti N-terminus neoepitope antibody was observed, which was not detected in the supernatant not containing IL-1 and a test compound (XXI). On the other hand, in the culture supernatant containing both IL-1 and a test compound (XXI), the 250 kDa aggrecanase-generated fragment was not detected.

SMILES	250 kDa aggrecanase-generated fragment of aggrecan (new N-terminus ARGSV), western blot
CC(C)C(NS(=O)(=O)c1ccc(Oc2ccccc2)cc1)C(=O)NO (stereo not shown) [XXI]	inhibits the production of aggrecanase-generated new N-terminus (ARGSV); also recorded: not detected
